Assay results as given in PubChem BioAssay AID2060904 (Molecular Pharmacology Branch, DTP, NCI, 2025).

Tested on: 349418-098-R-PDC complex spheroid viability
Assay: Anticancer human tumor 349418-098-R-PDC patient-derived lung adenocarcinoma cell line growth inhibition [RAS]
Details: for viability, T/C: stronger effect = lower value
Outline: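 Multi-cell-type spheroids: tumor cells plus HUVEC endothelial cells and mesenchymal stem cells. RAS-pathway inhibitors were combined with targeted agents, each dosed in half-log steps down from clinical Cmax, or from 10 microM when Cmax was unknown.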

[1] = curve of first compound, second compound 0.0316 µM
[2] = curve of first compound, second compound 0.1 µM
[3] = curve of first compound, second compound 0.316 µM
[4] = curve of first compound, second compound 1 µM
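Further: spheroids exposed to compound for seven days before viability readout.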

**Q.** How did the IC50 (curve of first compound, second compound 0.00316 µM) turn out when `CCc1c2c(nc3ccc(O)cc13)-c1cc3c(c(=O)n1C2)COC(=O)[C@]3(O)CC` + C=CC(=O)N1CCN(c2nc(OCC3CCCN3C)nc3c(F)c(-c4nc(N)cc(C)c4C(F)(F)F)c(Cl)cc23)C(C)C1 was run?
**A.** 0.951 nM

**Q.** And the IC50 (curve of first compound, second compound 0.01 µM)?
**A.** 1.8 nM

**Q.** What about the IC50 [1] of the same compound?
**A.** 1.75 nM

**Q.** What about the IC50 [2] of the same compound?
**A.** 0.985 nM

**Q.** And the IC50 [3]?
**A.** 1.2 nM

**Q.** What about the IC50 [4] of the same compound?
**A.** 1.69 nM

**Q.** What about the viability, T/C (second compound 0.00316 µM, first compound 0.000949 µM) of the same compound?
**A.** 50%

**Q.** And the viability, T/C (second compound 0.00316 µM, first compound 0.003 µM)?
**A.** 28.8%

**Q.** And the viability, T/C (second compound 0.00316 µM, first compound 0.00949 µM)?
**A.** 6.39%

**Q.** What about the viability, T/C (second compound 0.00316 µM, first compound 0.03 µM) of the same compound?
**A.** 4.43%

**Q.** What about the viability, T/C (second compound 0.00316 µM, first compound 0.0949 µM) of the same compound?
**A.** 3.41%

**Q.** What about the viability, T/C (second compound 0.00316 µM, first compound 0.3 µM) of the same compound?
**A.** 2.43%

**Q.** And the viability, T/C (second compound 0.01 µM, first compound 0.000949 µM)?
**A.** 69.1%

**Q.** And the viability, T/C (second compound 0.01 µM, first compound 0.003 µM)?
**A.** 35%

**Q.** And the viability, T/C (second compound 0.01 µM, first compound 0.00949 µM)?
**A.** 7.67%

**Q.** What about the viability, T/C (second compound 0.01 µM, first compound 0.03 µM) of the same compound?
**A.** 4.23%

**Q.** What about the viability, T/C (second compound 0.01 µM, first compound 0.0949 µM) of the same compound?
**A.** 2.64%

**Q.** And the viability, T/C (second compound 0.01 µM, first compound 0.3 µM)?
**A.** 1.87%

**Q.** What about the viability, T/C (second compound 0.0316 µM, first compound 0.000949 µM) of the same compound?
**A.** 70.9%

**Q.** And the viability, T/C (second compound 0.0316 µM, first compound 0.003 µM)?
**A.** 31.7%

**Q.** What about the viability, T/C (second compound 0.0316 µM, first compound 0.00949 µM) of the same compound?
**A.** 11.7%

**Q.** And the viability, T/C (second compound 0.0316 µM, first compound 0.03 µM)?
**A.** 4.13%

**Q.** And the viability, T/C (second compound 0.0316 µM, first compound 0.0949 µM)?
**A.** 2.62%

**Q.** And the viability, T/C (second compound 0.0316 µM, first compound 0.3 µM)?
**A.** 2.07%

**Q.** And the viability, T/C (second compound 0.1 µM, first compound 0.000949 µM)?
**A.** 50.8%

**Q.** And the viability, T/C (second compound 0.1 µM, first compound 0.003 µM)?
**A.** 27.1%

**Q.** And the viability, T/C (second compound 0.1 µM, first compound 0.00949 µM)?
**A.** 10.5%

**Q.** And the viability, T/C (second compound 0.1 µM, first compound 0.03 µM)?
**A.** 4.6%

**Q.** What about the viability, T/C (second compound 0.1 µM, first compound 0.0949 µM) of the same compound?
**A.** 3.02%

**Q.** And the viability, T/C (second compound 0.1 µM, first compound 0.3 µM)?
**A.** 2.05%

**Q.** And the viability, T/C (second compound 0.316 µM, first compound 0.000949 µM)?
**A.** 57.2%

**Q.** And the viability, T/C (second compound 0.316 µM, first compound 0.003 µM)?
**A.** 21.9%

**Q.** And the viability, T/C (second compound 0.316 µM, first compound 0.00949 µM)?
**A.** 7.59%

**Q.** What about the viability, T/C (second compound 0.316 µM, first compound 0.03 µM) of the same compound?
**A.** 4.71%

**Q.** What about the viability, T/C (second compound 0.316 µM, first compound 0.0949 µM) of the same compound?
**A.** 2.92%

**Q.** What about the viability, T/C (second compound 0.316 µM, first compound 0.3 µM) of the same compound?
**A.** 1.94%

**Q.** What about the viability, T/C (second compound 1 µM, first compound 0.000949 µM) of the same compound?
**A.** 73.1%

**Q.** And the viability, T/C (second compound 1 µM, first compound 0.003 µM)?
**A.** 26.9%

**Q.** And the viability, T/C (second compound 1 µM, first compound 0.00949 µM)?
**A.** 9.24%

**Q.** And the viability, T/C (second compound 1 µM, first compound 0.03 µM)?
**A.** 5.15%

**Q.** What about the viability, T/C (second compound 1 µM, first compound 0.0949 µM) of the same compound?
**A.** 3.55%

**Q.** What about the viability, T/C (second compound 1 µM, first compound 0.3 µM) of the same compound?
**A.** 2.46%

**Q.** For `C=CC(=O)Nc1cc(Nc2nccc(-c3cn(C)c4ccccc34)n2)c(OC)cc1N(C)CCN(C)C` + C#Cc1c(F)ccc2cc(O)cc(-c3ncc4c(N5CC6CCC(C5)N6)nc(OCC56CCCN5CC(F)C6)nc4c3F)c12, which IC50 [1] is on record?
**A.** > 1000 nM

**Q.** What about the IC50 [2] of the same compound?
**A.** > 1000 nM

**Q.** What about the IC50 [3] of the same compound?
**A.** > 1000 nM

**Q.** What about the IC50 [4] of the same compound?
**A.** > 1000 nM

**Q.** And the IC50 (curve of first compound, second compound 3.16 µM)?
**A.** > 1000 nM

**Q.** And the IC50 (curve of first compound, second compound 10 µM)?
**A.** 465 nM

**Q.** And the viability, T/C (second compound 0.0316 µM, first compound 0.00316 µM)?
**A.** 97.1%

**Q.** And the viability, T/C (second compound 0.0316 µM, first compound 0.01 µM)?
**A.** 130%

**Q.** And the viability, T/C (second compound 0.0316 µM, first compound 0.0316 µM)?
**A.** 95.5%

**Q.** What about the viability, T/C (second compound 0.0316 µM, first compound 0.1 µM) of the same compound?
**A.** 86.1%

**Q.** And the viability, T/C (second compound 0.0316 µM, first compound 0.316 µM)?
**A.** 84.3%

**Q.** What about the viability, T/C (second compound 0.0316 µM, first compound 1 µM) of the same compound?
**A.** 92.3%

**Q.** What about the viability, T/C (second compound 0.1 µM, first compound 0.00316 µM) of the same compound?
**A.** 93.5%

**Q.** What about the viability, T/C (second compound 0.1 µM, first compound 0.01 µM) of the same compound?
**A.** 125%

**Q.** And the viability, T/C (second compound 0.1 µM, first compound 0.0316 µM)?
**A.** 82.3%

**Q.** What about the viability, T/C (second compound 0.1 µM, first compound 0.1 µM) of the same compound?
**A.** 68.3%

**Q.** What about the viability, T/C (second compound 0.1 µM, first compound 0.316 µM) of the same compound?
**A.** 80.2%

**Q.** What about the viability, T/C (second compound 0.1 µM, first compound 1 µM) of the same compound?
**A.** 66.5%

**Q.** And the viability, T/C (second compound 0.316 µM, first compound 0.00316 µM)?
**A.** 86.7%

**Q.** What about the viability, T/C (second compound 0.316 µM, first compound 0.01 µM) of the same compound?
**A.** 119%

**Q.** And the viability, T/C (second compound 0.316 µM, first compound 0.0316 µM)?
**A.** 85.8%

**Q.** And the viability, T/C (second compound 0.316 µM, first compound 0.1 µM)?
**A.** 86.2%

**Q.** And the viability, T/C (second compound 0.316 µM, first compound 0.316 µM)?
**A.** 89.5%

**Q.** And the viability, T/C (second compound 0.316 µM, first compound 1 µM)?
**A.** 95.7%

**Q.** What about the viability, T/C (second compound 1 µM, first compound 0.00316 µM) of the same compound?
**A.** 80.2%

**Q.** And the viability, T/C (second compound 1 µM, first compound 0.01 µM)?
**A.** 121%

**Q.** And the viability, T/C (second compound 1 µM, first compound 0.0316 µM)?
**A.** 85.3%

**Q.** And the viability, T/C (second compound 1 µM, first compound 0.1 µM)?
**A.** 73.1%

**Q.** What about the viability, T/C (second compound 1 µM, first compound 0.316 µM) of the same compound?
**A.** 89.2%

**Q.** And the viability, T/C (second compound 1 µM, first compound 1 µM)?
**A.** 82.5%

**Q.** What about the viability, T/C (second compound 3.16 µM, first compound 0.00316 µM) of the same compound?
**A.** 73.6%

**Q.** What about the viability, T/C (second compound 3.16 µM, first compound 0.01 µM) of the same compound?
**A.** 91.2%

**Q.** And the viability, T/C (second compound 3.16 µM, first compound 0.0316 µM)?
**A.** 84.9%

**Q.** What about the viability, T/C (second compound 3.16 µM, first compound 0.1 µM) of the same compound?
**A.** 82.8%

**Q.** And the viability, T/C (second compound 3.16 µM, first compound 0.316 µM)?
**A.** 67.6%

**Q.** And the viability, T/C (second compound 3.16 µM, first compound 1 µM)?
**A.** 86.4%

**Q.** What about the viability, T/C (second compound 10 µM, first compound 0.00316 µM) of the same compound?
**A.** 55.6%

**Q.** And the viability, T/C (second compound 10 µM, first compound 0.01 µM)?
**A.** 62%

**Q.** What about the viability, T/C (second compound 10 µM, first compound 0.0316 µM) of the same compound?
**A.** 88.9%

**Q.** And the viability, T/C (second compound 10 µM, first compound 0.1 µM)?
**A.** 65.2%

**Q.** What about the viability, T/C (second compound 10 µM, first compound 0.316 µM) of the same compound?
**A.** 72.9%

**Q.** What about the viability, T/C (second compound 10 µM, first compound 1 µM) of the same compound?
**A.** 12.4%

**Q.** With `C=CC(=O)Nc1cc(Nc2nccc(-c3cn(C)c4ccccc34)n2)c(OC)cc1N(C)CCN(C)C` as the compound, how does the viability, T/C (compound 0.00316 µM) read?
**A.** 104% [middle of 4 runs]

**Q.** What about the viability, T/C (compound 0.316 µM) of the same compound?
**A.** 85.7% [middle of 4 runs]

**Q.** What about the viability, T/C (compound 1 µM) of the same compound?
**A.** 71.4% [middle of 4 runs]

**Q.** And the IC50 (curve of compound)?
**A.** > 1000 nM
